Experimental data as given in patent US11090304B2 (Amgen Inc., priority 2018, dated 2021).
pIC50: −log10 of the molar value.

Key:
[1] = system: Phosphorylation of ERK1/2 in MIA PaCa-2 cells; test: Phospho-ERK1/2 MSD assay in MIA PaCa-2 cells; assay type: cell-based; settings: Homo sapiens, MIA PaCa-2, 2 h, read-out: p-ERK IC50 (2 h; MIA PaCa-2), 2 h compound treatment
In short: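 Following a 2 or 4 h incubation with titrated compound, cells receive a 10 min pulse of 10 ng/mL EGF. Phospho-ERK1/2 in RIPA lysates is then quantified by MSD immunoassay, and IC50 values come from a four-parameter logistic model.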

[2] = molecular target: GDP-bound KRAS protein (aa 1-169), containing both G12C and C118A amino acid substitutions (Homo sapiens, UniProt P01116, C118A/G12C); test: Coupled nucleotide exchange assay (SOS-mediated, AlphaScreen); assay type: biochemical; settings: 5 min compound pre-incubation
Chain of GDP-bound KRAS protein (aa 1-169), containing both G12C and C118A amino acid substitutions (P01116 1-169 isoform P01116-2 G12C/C118A): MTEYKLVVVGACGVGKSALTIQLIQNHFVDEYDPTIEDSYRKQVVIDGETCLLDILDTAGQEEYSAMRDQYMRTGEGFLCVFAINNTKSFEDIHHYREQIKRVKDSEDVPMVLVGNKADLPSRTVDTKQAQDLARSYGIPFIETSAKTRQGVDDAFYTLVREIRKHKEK

What does the source list for `C=CC(=O)N1CCN(c2nc(=O)n(-c3ncccc3CC(C)C)c3nc(-c4ccccc4F)c(Cl)cc23)[C@@H](C)C1` [Example 54-102, 6-chloro-7-(2-fluorophenyl)-4-((2S)-2-methyl-4-(2-propenoyl)-1-piperazinyl)-1-(3-(2-methylpropyl)-2-pyridinyl) pyrido[2,3-d]pyrimidin-2(1H)-one]?
pIC50 [1]: 6.75; Coupled exchange IC50 (5 min) [2]: 0.161 | nda μM

How did the pIC50 [1] turn out when `C=CC(=O)N1CCN(c2nc(=O)n(-c3c(C(C)C)cccc3N(C)C)c3nc(-c4ccccc4F)c(Cl)cc23)[C@@H](C)C1` [Example 54-104, 6-chloro-1-(2-(dimethyl-amino)-6-(2-propanyl)phenyl)-7-(2-fluorophenyl)-4-((2S)-2-methyl-4-(2-propenoyl)-1-piperazinyl) pyrido[2,3-d]pyrimidin-2(1H)-one] was run?
Its pIC50 is 7.15.

What about the “Coupled exchange IC50 (5 min)” value [2] of the same compound?
Its value is 0.09 | nda μM.

`C=CC(=O)N1CCN(c2nc(=O)n(-c3c(C)cc(OC)nc3C(C)C)c3nc(-c4ccccc4F)c(Cl)cc23)[C@@H](C)C1` [Example 54-105, 6-chloro-7-(2-fluorophenyl)-1-(6-methoxy-4-methyl-2-(2-propanyl)-3-pyridinyl)-4-((2S)-2-methyl-4-(2-propenoyl)-1-piperazinyl) pyrido[2,3-d]pyrimidin-2(1H)-one] was tested. Which pIC50 [1] did it give?
Its pIC50 is 7.05.

And the “Coupled exchange IC50 (5 min)” value [2]?
The value was 0.07 | nda μM.

`C=CC(=O)N1CCN(c2nc(=O)n(-c3c(OC)ncnc3C(C)C)c3nc(-c4ccccc4F)c(Cl)cc23)[C@@H](C)C1` [Example 54-107, 6-chloro-7-(2-fluorophenyl)-1-(4-methoxy-6-(2-propanyl)-5-pyrimidinyl)-4-((2S)-2-methyl-4-(2-propenoyl)-1-piperazinyl) pyrido[2,3-d]pyrimidin-2(1H)-one] was tested. Which pIC50 [1] did it give?
Its pIC50 is 7.00.

And the “Coupled exchange IC50 (5 min)” value [2]?
Its value is 0.159 | nda μM.

`C=CC(=O)N1CCN(c2nc(=O)n(-c3c(C(C)C)nc[nH]c3=O)c3nc(-c4ccccc4F)c(Cl)cc23)[C@@H](C)C1` [Example 54-108, 6-chloro-7-(2-fluorophenyl)-4-((2S)-2-methyl-4-(2-propenoyl)-1-piperazinyl)-1-(6-oxo-4-(2-propanyl)-1,6-dihydro-5-pyrimidinyl) pyrido[2,3-d]pyrimidin-2(1H)-one] was tested. Which pIC50 [1] did it give?
The pIC50 was 5.42.

What about the “Coupled exchange IC50 (5 min)” value [2] of the same compound?
Its value is 0.434 | nda μM.

What does the source list for `C=CC(=O)N1CCN(c2nc(=O)n(-c3cncnc3C(C)(C)C)c3nc(-c4ccccc4F)c(Cl)cc23)[C@@H](C)C1` [Example 54-110, 6-chloro-7-(2-fluorophenyl)-1-(4-(2-methyl-2-propanyl)-5-pyrimidinyl)-4-((2S)-2-methyl-4-(2-propenoyl)-1-piperazinyl) pyrido[2,3-d]pyrimidin-2(1H)-one]?
pIC50 [1]: 6.39; Coupled exchange IC50 (5 min) [2]: 0.404 | nda μM

With `C=CC(=O)N1CCN(c2nc(=O)n(-c3n[nH]cc3C(C)C)c3nc(-c4ccccc4F)c(Cl)cc23)[C@@H](C)C1` [Example 54-111, 6-chloro-7-(2-fluorophenyl)-4-((2S)-2-methyl-4-(2-propenoyl)-1-piperazinyl)-1-(4-(2-propanyl)-1H-pyrazol-3-yl)pyrido[2,3-d]pyrimidin-2(1H)-one] as the compound, how does the pIC50 [1] read?
The pIC50 was 6.10.

What about the “Coupled exchange IC50 (5 min)” value [2] of the same compound?
Its value is 0.417 | nda μM.

Which results are given for `C=CC(=O)N1CCN(c2nc(=O)n(-c3cccnc3C(C)(C)C)c3nc(-c4ccccc4F)c(Cl)cc23)[C@@H](C)C1` [Example 54-112, 6-chloro-7-(2-fluorophenyl)-1-(2-(2-methyl-2-propanyl)-3-pyridinyl)-4-((2S)-2-methyl-4-(2-propenoyl)-1-piperazinyl) pyrido[2,3-d]pyrimidin-2(1H)-one]?
pIC50 [1]: 6.65; Coupled exchange IC50 (5 min) [2]: 0.084 | nda μM

What does the source list for `C=CC(=O)N1CCN(c2nc(=O)n(-c3c(C)noc3C(C)C)c3nc(-c4c(O)cccc4F)c(Cl)cc23)[C@@H](C)C1` [Example 55-1, 6-Chloro-7-(2-fluoro-6-hydroxyphenyl)-1-(3-methyl-5-(2-propanyl)-1,2-oxazol-4-yl)-4-((2S)-2-methyl-4-(2-propenoyl)-1-piperazinyl)pyrido[2,3-d]pyrimidin-2(1H)-one]?
pIC50 [1]: 6.65; Coupled exchange IC50 (5 min) [2]: 0.124 | nda μM

Which results are given for `C=CC(=O)N1CCN(c2nc(=O)n(-c3c(OC)ncnc3OC)c3nc(-c4c(O)cccc4F)c(Cl)cc23)[C@@H](C)C1` [Example 55-3, 6-chloro-1-(4,6-dimethoxy-5-pyrimidinyl)-7-(2-fluoro-6-hydroxyphenyl)-4-((2S)-methyl-4-(2-propenoyl)-1-piperazinyl)pyrido[2,3-d]pyrimidin-2(1H)-one]?
pIC50 [1]: 6.04; Coupled exchange IC50 (5 min) [2]: 0.966 | nda μM

What does the source list for `C=CC(=O)N1CCN(c2nc(=O)n(-c3c(C)nc(C)nc3C(C)C)c3nc(-c4c(O)cccc4F)c(Cl)cc23)[C@@H](C)C1` [Example 55-4, 6-chloro-1-(2,4-dimethyl-6-(2-propanyl)-5-pyrimidinyl)-7-(2-fluoro-6-hydroxyphenyl)-4-((2S)-2-methyl-4-(2-propenoyl)-1-piperazinyl)pyrido[2,3-d]pyrimidin-2(1H)-one]?
pIC50 [1]: 7.10; Coupled exchange IC50 (5 min) [2]: 0.057 | nda μM

With `C=CC(=O)N1CCN(c2nc(=O)n(-c3c(C(C)C)nc(C)nc3C(C)C)c3nc(-c4ccccc4F)c(Cl)cc23)[C@@H](C)C1` [Example 55-5, 6-chloro-7-(2-fluorophenyl)-1-(2-methyl-4,6-di(2-propanyl)-5-pyrimidinyl)-4-((2S)-2-methyl-4-(2-propenoyl)-1-piperazinyl)pyrido[2,3-d]pyrimidin-2(1H)-one] as the compound, how does the pIC50 [1] read?
The pIC50 was 7.51.

And the “Coupled exchange IC50 (5 min)” value [2]?
The value was 0.045 | nda μM.

How did the pIC50 [1] turn out when `C=CC(=O)N1CCN(c2nc(=O)n(-c3ccccc3CC(F)(F)F)c3nc(-c4c(O)cccc4F)c(Cl)cc23)[C@@H](C)C1` [Example 55-6, 6-chloro-7-(2-fluoro-6-hydroxyphenyl)-4-((2S)-2-methyl-4-(2-propenoyl)-1-piperazinyl)-1-(2-(2,2,2-trifluoroethyl)phenyl)pyrido[2,3-d]pyrimidin-2(1H)-one] was run?
Its pIC50 is 6.50.

What about the “Coupled exchange IC50 (5 min)” value [2] of the same compound?
The value was 0.318 | nda μM.

How did the pIC50 [1] turn out when `C=CC(=O)N1CCN(c2nc(=O)n(-c3c(C)cccc3CC)c3nc(-c4ccccc4F)c(Cl)cc23)[C@@H](C)C1` [Example 55-9, 6-chloro-1-(2-ethyl-6-methylphenyl)-7-(2-fluorophenyl)-4-((2S)-2-methyl-4-(2-propenoyl)-1-piperazinyl)pyrido[2,3-d]pyrimidin-2(1H)-one] was run?
Its pIC50 is 6.67.

What about the “Coupled exchange IC50 (5 min)” value [2] of the same compound?
Its value is 0.24 | nda μM.

How did the pIC50 [1] turn out when `C=CC(=O)N1CCN(c2nc(=O)n(-c3c(C)ccnc3CC)c3nc(-c4c(O)cccc4F)c(Cl)cc23)[C@@H](C)C1` [Example 55-10, 6-chloro-1-(2-ethyl-4-methyl-3-pyridinyl)-7-(2-fluoro-6-hydroxyphenyl)-4-((2S)-2-methyl-4-(2-propenoyl)-1-piperazinyl)pyrido[2,3-d]pyrimidin-2(1H)-one] was run?
The pIC50 was 6.81.

And the “Coupled exchange IC50 (5 min)” value [2]?
The value was 0.123 | nda μM.

What does the source list for `C=CC(=O)N1CCN(c2nc(=O)n(-c3c(C)noc3C(C)C)c3nc(-c4ccccc4F)c(Cl)cc23)[C@@H](C)C1` [Example 55-11, 6-chloro-7-(2-fluoropheny)-1-(3-methyl-5-(2-propanyl)-1,2-oxazol-4-yl)-4-((2S)-2-methyl-4-(2-propenoyl)-1-piperazinyl)pyrido[2,3-d]pyrimidin-2(1H)-one]?
pIC50 [1]: 6.63; Coupled exchange IC50 (5 min) [2]: 0.309 | nda μM

With `C=CC(=O)N1CCN(c2nc(=O)n(-c3c(C)noc3C(C)C)c3nc(-c4ccc(F)cc4F)c(Cl)cc23)[C@@H](C)C1` [Example 55-12, 6-chloro-7-(2,4-difuorophenyl)-1-(3-methyl-5-(2-propanyl)-1,2-oxazol-4-yl)-4-((2S)-2-methyl-4-(2-propenoyl)-1-piperazinyl)pyrido[2,3-d]pyrimidin-2(1H)-one] as the compound, how does the pIC50 [1] read?
The pIC50 was 6.11.

And the “Coupled exchange IC50 (5 min)” value [2]?
The value was 0.583 | nda μM.

How did the pIC50 [1] turn out when `C=CC(=O)N1CCN(c2nc(=O)n(-c3c(C)ncnc3C(C)C)c3nc(-c4ccccc4F)c(Cl)cc23)[C@@H](C)C1` [Example 55-13, 6-chloro-7-(2-fluorophenyl)-1-(4-methyl-6-(2-propanyl)-5-pyrimidinyl)-4-((2S)-2-methyl-4-(2-propenoyl)-1-piperazinyl)pyrido[2,3-d]pyrimidin-2(1H)-one] was run?
Its pIC50 is 6.75.

And the “Coupled exchange IC50 (5 min)” value [2]?
Its value is 0.191 | nda μM.

Which results are given for `C=CC(=O)N1CCN(c2nc(=O)n(-c3c(C)cccc3C3CC3)c3nc(-c4c(O)cccc4F)c(Cl)cc23)[C@@H](C)C1` [Example 55-15, 6-chloro-1-(2-cyclopropyl-6-methylphenyl)-7-(2-fluoro-6-hydroxyphenyl)-4-((2S)-2-methyl-4-(2-propenoyl)-1-piperazinyl)pyrido[2,3-d]pyrimidin-2(1H)-one]?
pIC50 [1]: 7.04; Coupled exchange IC50 (5 min) [2]: 0.055 | nda μM

What does the source list for `C=CC(=O)N1CCN(c2nc(=O)n(-c3c(C)cc(N(C)C)cc3C(C)C)c3nc(-c4ccccc4F)c(Cl)cc23)[C@@H](C)C1` [Example 55-16, 6-chloro-1-(4-(dimethylamino)-2-methyl-6-(2-propanyl)phenyl)-7-(2-fluorophenyl)-4-((2S)-2-methyl-4-(2-propenoyl)-1-piperazinyl)pyrido[2,3-d]pyrimidin-2(1H)-one]?
pIC50 [1]: 6.70; Coupled exchange IC50 (5 min) [2]: 0.154 | nda μM

With `C=CC(=O)N1CCN(c2nc(=O)n(-c3ncsc3C(C)C)c3nc(-c4c(O)cccc4F)c(Cl)cc23)[C@@H](C)C1` [Example 55-17, 6-chloro-7-(2-fluoro-6-hydroxyphenyl)-4-((2S)-2-methyl-4-(2-propenoyl)-1-piperazinyl)-1-(5-(2-propanyl)-1,3-thiazol-4-yl)pyrido[2,3-d]pyrimidin-2(1H)-one] as the compound, how does the pIC50 [1] read?
Its pIC50 is 6.91.

What about the “Coupled exchange IC50 (5 min)” value [2] of the same compound?
The value was 0.18 | nda μM.

How did the pIC50 [1] turn out when `C=CC(=O)N1CCN(c2nc(=O)n(-c3scnc3C(C)C)c3nc(-c4ccccc4F)c(Cl)cc23)[C@@H](C)C1` [Example 55-18, 6-chloro-7-(2-fluorophenyl)-4-((2S)-2-methyl-4-(2-propenoyl)-1-piperazinyl)-1-(4-(2-propanyl)-1,3-thiazol-5-yl)pyrido[2,3-d]pyrimidin-2(1H)-one] was run?
Its pIC50 is 7.08.

And the “Coupled exchange IC50 (5 min)” value [2]?
The value was 0.067 | nda μM.
